# Source: patent US9861679B2, “Method of treating cancer” (priority 2014, dated 2018)
# What was measured:
# [1] = system: low- and intermediate-1-risk Myelodysplastic syndromes; settings: cited from earlier work
# [2] = system: Bone Marrow Derived Macrophages (BMDM); assay: BMDM cell viability (CellTiter-Glo) after SMAC mimetic Compound A ± p38 or MK2 inhibitor; type: cell-based, mouse; settings: inhibitor 30 min then 500 nM Compound A, 24 h, FIG. 1C
# Experimental: FIG. 1: p38 inhibitors increase TNFα production and cell death induced by SMAC mimetics. A. Bone Marrow Derived Macrophages (BMDM) were pretreated ±1 μM of the indicated p38 inhibitors for 30 min then treated with 500 nM of SMAC mimetic Compound A (CompA) for 24 h. TNFα production was measured by ELISA of supernatants. B. BMDM were pretreated 500 nM of SMAC mimetic Compound A, GT13072 or birinapant ±1 μM of LY2228820. TNFα production was measured by ELISA of supernatants. N=3 biological repeats and error bars are SEM. C. BMDM were pretreated±the indicated dose of MK2 inhibitor PF-3644022 and the p38 inhibitor LY2228820, VX-702, TAK-715 or VX-745 for 30 min then treated with 500 nM of SMAC mimetic Compound A. Cell viability was measured after 24 h of treatment using CellTiter-Glo® (CTG) reagent. N=3 biological repeats and error bars are SEM.
# BMDMs from C56/B16, p38α^LysMCre or Mk2^−/− were cultured for 6 days in DMEM+10% FBS (v/v)+20% L929 mouse fibroblasts (a source of macrophage colony stimulating factor), plated and assayed the following day. BMDMs cells were seeded and assayed in the presence of L929 conditioned medium. AML cells were cultured in IMDM+10% FBS (v/v)+2.5 ng/ml of IL-3. NCI-H929 cells were cultured in RPMI+10% FBS (v/v). Cell suspension from breast ER+ patient derived tumours was cultured in mammosphere media. After treatment with SMAC mimetic with or without kinases inhibitors cell viability was measured by staining with propidium iodide (2 μg/mL) or by using CellTiter-Glo® (Promega).
# C57BL/6 mice = assay: Tolerability of SMAC mimetic plus p38 inhibitor in non tumour-bearing mice; type: in vivo; settings: LY2228820 15 mg/kg combined with GT13072 5 mg/kg; FIG. 7C
# Experimental: FIG. 7: Mice tolerate administration of birinapant plus p38 inhibitor. A. Mononuclear cells isolated from healthy donor by Ficoll sedimentation were treated for 48 h with indicated drugs. CD34^+ cell death was measured by staining with PI and flow cytometry. For each donor sample, graphs show mean of at least n=2 technical replicates across n=2-5 independent experiments. B and C. C57BL/6 mice were intra-peritoneally injected with vehicle (captisol 6%) or birinapant (B) or GT13072 (C) or LY2228820 or combination of LY2228820 and SM at indicated concentration. Mice received 8 injections twice a week over 4 weeks. Mice were euthanised 2 weeks after the treatment stopped. Graphs show organs, body weights and blood cell populations with 6 mice/group (B), 4 mice/group (C). Error bars are SEM.
# To assess the safety of SMAC mimetic plus p38 inhibitor C57BL6 mice were injected by intra-peritoneal route twice a week for 4 weeks with either vehicle (6% Captisol) or 15 mg/kg of LY222820 or 5 mg/kg birinapant±15 mg/kg LY2228820, or 10 mg/kg birinapant±15 mg/kg LY2228820. Another cohort received either vehicle or 5 mg/kg of GT13072, or 15 mg/kg of LY222820 or combination.
# 200 μL of blood was collected from the retro-orbital plexus into tubes containing potassium ethylenediaminetetraacetic acid (Sarstedt) and analyzed in an Advia 2120 automated hematologic analyzer (Bayer).
# [3] = system: Bone Marrow Derived Macrophages (BMDM); assay: TNFα production by ELISA in BMDM treated with SMAC mimetic ± p38 inhibitors (kinase inhibitors screen); type: cell-based, mouse; settings: 500 nM CompA, GT13072 or birinapant ± 1 μM LY2228820, FIG. 1B
# Experimental: FIG. 1: p38 inhibitors increase TNFα production and cell death induced by SMAC mimetics. A. Bone Marrow Derived Macrophages (BMDM) were pretreated ±1 μM of the indicated p38 inhibitors for 30 min then treated with 500 nM of SMAC mimetic Compound A (CompA) for 24 h. TNFα production was measured by ELISA of supernatants. B. BMDM were pretreated 500 nM of SMAC mimetic Compound A, GT13072 or birinapant ±1 μM of LY2228820. TNFα production was measured by ELISA of supernatants. N=3 biological repeats and error bars are SEM. C. BMDM were pretreated±the indicated dose of MK2 inhibitor PF-3644022 and the p38 inhibitor LY2228820, VX-702, TAK-715 or VX-745 for 30 min then treated with 500 nM of SMAC mimetic Compound A. Cell viability was measured after 24 h of treatment using CellTiter-Glo® (CTG) reagent. N=3 biological repeats and error bars are SEM. BMDMs from C56/B16, p38α^LysMCre or Mk2^−/− were cultured for 6 days in DMEM+10% FBS (v/v)+20% L929 mouse fibroblasts (a source of macrophage colony stimulating factor), plated and assayed the following day. BMDMs cells were seeded and assayed in the presence of L929 conditioned medium. AML cells were cultured in IMDM+10% FBS (v/v)+2.5 ng/ml of IL-3. […] After treatment with SMAC mimetic with or without kinases inhibitors cell viability was measured by staining with propidium iodide (2 μg/mL) or by using CellTiter-Glo® (Promega). […]
# [4] = system: advanced solid tumours and lymphoma; settings: intravenous administration, Phase I, patients; cited from earlier work
# [5] = system: MLL-ENL-luciferase leukemic cells; assay: Anti-tumour efficacy in mice bearing MLL-ENL-luciferase leukemia; type: in vivo, mouse; settings: mice bearing MLLENL-Luc, after one week of treatment; birinapant 5 mg/kg, LY2228820 10 mg/kg i.p. twice a week; FIG. 8A
# Experimental: FIG. 8: Combination of birinapant with p38 inhibitor decreases AML tumor burden. Mice bearing MLLENL-luciferase (A and B) or MLL-AF9 (C) leukemic cells received i.p injections of birinapant (5 mg/kg), LY2228820 (10 mg/kg) or the combined drugs twice a week for 4 weeks. A. Representative data of in vivo imaging of leukaemia progression in mice bearing MLL-ENL-luciferase. B. Kaplan-Meier survival curve of mice bearing MLL-ENL-luciferase and treated or not with birinapant, LY222820 or combined therapy. C. Kaplan-Meier survival curve of mice bearing MLL-AF9 and treated or not with birinapant, LY222820 or combined therapy.
# To assess the anti-tumour efficacy of SMAC mimetic plus p38 inhibitor C57BL6 Albinos mice were injected by intra-venous route with 5·10^5 MLLENLluc. Luciferase activity was measured at D4 and D8 after leukemic cells injection to ensure engraftment. Treatment started at D8. Mice were treated twice a week for 4 weeks with either vehicle (6% Captisol), 5 mg/kg of Birinapant, or 10 mg/kg of LY222820 or combination. Mice were monitored for leukemia progression once a week using the in vivo bioluminescent imaging. […]
# To assess the therapeutic efficacy of the combination multiple primary MLL-ENL and MLL-AF9 leukemias were transplanted and the secondary recipient mice were treated with the different drugs. […] The engraftment and trafficking were evaluated by in vivo bioluminescent imaging. […]
# [6] = system: human AML patient samples; assay: In vitro response of human AML patient samples to Birinapant; type: cell-based; settings: single agent
# [7] = oral administration, Phase I/II, patients
smiles,measurement,setting,value
C[C@@H]1CN(Cc2ccc(F)cc2)[C@@H](C)CN1C(=O)c1cc2c(C(=O)C(=O)N(C)C)cn(C)c2cc1Cl [Talmapimod],complete remission,[1]; [7],only one patient achieved a complete remission
same,tolerability,[1]; [7],well tolerated
same,duration of complete remission,[1]; the one patient with complete remission,more than 2 years
O=c1ncn2nc(Sc3ccc(F)cc3F)ccc2c1-c1c(Cl)cccc1Cl [VX-745],cell death induced by SMAC mimetics,[2],dramatically increased
CCc1nc(-c2cccc(C)c2)c(-c2ccnc(NC(=O)c3ccccc3)c2)s1 [TAK-715],cell death induced by SMAC mimetics,[2],dramatically increased
Cc1ccc(-c2ccc3c(ccc4sc5c(c43)NC[C@@H](C)NC5=O)n2)cn1 [PF-3644022],cell death induced by SMAC mimetics,[2],dramatically increased
CC(C)(C)Cn1c(N)nc2ccc(-c3[nH]c(C(C)(C)C)nc3-c3ccc(F)cc3)nc21 [LY2228820],cell death induced by SMAC mimetics,[2],dramatically increased
same,effect on splenomegaly induced by GT13072,C57BL/6 mice,did not even exacerbate
same,TNF production of three different smac-mimetics,[3],increased TNF production
CC[C@H](NC(=O)[C@H](C)NC)C(=O)N1C[C@@H](O)C[C@H]1Cc1c(-c2[nH]c3cc(F)ccc3c2C[C@@H]2C[C@H](O)CN2C(=O)[C@H](CC)NC(=O)[C@H](C)NC)[nH]c2cc(F)ccc12 [Birinapant],anti-tumour activity,[4],evidence of anti-tumour activity
same,tolerability,[4],well tolerated with no dose-limiting toxicities
same,response to treatment (bioluminescent imaging),[5],did not
same,response to Birinapant treatment in vitro,[6],some human AML patient samples did not respond
NC(=O)c1ccc(N(C(N)=O)c2c(F)cccc2F)nc1-c1ccc(F)cc1F [VX-702],cell death induced by SMAC mimetics,[2],dramatically increased
